Experimental data reported in patent publication US20090274773A1, “ANTIPROLIFERATIVE COMBINATION COMPRISING CYC-682 AND A CYTOTOXIC AGENT” (Cyclacel Limited, priority 2005, published 2009).

Assays:
Assay type in all cases: cell-based, human
[1] = test system: NSCLC cell line RERF-LC-MA; experiment: CNDAC combinations (alamar blue, Calcusyn Combination Index); conditions: named agent in combination with CNDAC, simultaneous treatment 72 h
Procedure: Experiments in the NSCLC cell lines H1299 or RERF-LC-MA were performed in 96-well plates, with cells seeded at a density of 3,000/well, in DMEM containing 10% (v/v) FCS. Stock solutions of all drugs were made up in dimethylsulfoxide (DMSO), with the exception of gemcitabine, which was dissolved in 0.9% (w/v) sterile saline solution.
For experimental assessment of potential synergistic interactions, the concomitant treatment regime involved simultaneous treatment of cells with CNDAC and the other agent under investigation for 72 h, alongside suitable controls of cells treated with the individual compounds alone for 72 hr. In the sequential treatment regimes, one drug was added to the cells 2 h after plating, and left for 24 h. Media was then aspirated, replaced with fresh media containing the second drug and incubated for 72 h. The two individual treatment controls for the sequential treatment regime involved substituting one of the drug treatments with drug-free media. After drug treatment, the number of cells in each well was estimated by incubating for 1 h in media containing 10% alamar blue (Roche, Lewes, East Sussex, U.K.) and measuring the absorbance at 488-595 nm. Drug interactions were analysed using the Calcusyn software package (BioSoft, Cambridge, U.K.) described below. A Combination Index (C.I.) of 1 indicates an additive drug interaction, whereas a C.I. greater than 1 is antagonistic and a score lower than 1 is synergistic.

HCT116 cancer cell line = experiment: CYC682 drug-combination study (MTT, Chou and Talalay combination index, isobolograms)
Procedure: (§1) For simultaneous drug exposure, cells were seeded at 2×10^3 cells/well in 96-well plates and treated 24 hours later with increasing concentrations of CYC682 alone or with various concentrations of another drug corresponding to the IC20, IC40 or IC60 values. After approximately four doubling times (120 hours), the growth inhibitory effect was measured by the MTT assay.
(§2) Cells were seeded at 2×10^3 cells/well in 96-well plates and allowed to grow for 24 hour. Cells were then exposed to various concentrations of the first drug for 1 hour/24 hours/48 hours, the drug was removed, the cells were washed and the second drug was added. After additional drug exposure, the second drug was removed, the cells were washed and incubated in drug-free medium for 72 hours. Growth inhibition was then determined by the MTT assay.
(§3) Effects of drug combinations were evaluated using the Chou and Talalay method which is based on the median-effect principle (Chou T C, Talalay P. Quantitative analysis of dose-effect relationships: the combined effects of multiple drugs or enzyme inhibitors. Adv Enzyme Regul. 1984; 22:27-55). […] On the basis of the slope of the curve for each drug in a combination, it can be determined whether the drugs have mutually nonexclusive effects (e.g., independent or interactive modes of action).
(§4) The combination index (CI) is then determined by the equation:
(§5) CI=[(C)1/(Cx)1]+[(C)2/(Cx)2]+[α(C)1(C)2/(Cx)1(Cx)2],
(§6) where (Cx)1 is the concentration of drug 1 required to produce an x percent effect of that drug alone, and (C)1, the concentration of drug 1 required to produce the same x percent effect in combination with (C)2. If the mode of action of the drugs is mutually exclusive or nonexclusive, then α is 0 or 1, respectively. CI values will be calculated with this equation using different values of fa (i.e., for different degrees of cell growth inhibition). CI values of <1 indicate synergy, the value of 1 indicates additive effects, and values >1 indicate antagonism. Data were analyzed on an IBM-PC computer using concentration-effect analysis for microcomputer software (Biosoft, Cambridge, UK). For statistical analysis and graphs we will use Instat and Prism software (GraphPad, San Diego, USA). The dose-effect relationships for the drugs tested, alone or in paired combinations, were subjected to median-effect plot analysis to determine their relative potency (IC50), shape (m), and conformity (r) in each selected cell line. As stated above, the IC50 and m values were respectively used to calculate synergism and antagonism on the basis of the CI equation. Results were expressed as the mean±standard deviation of at least 3 experiments performed in duplicate. In each experiment, cells were exposed to the paired combinations for 48 hours as described above. Means and standard deviations were compared using Student's t-test (two-sided p value).
(§7) The effect of sequential and simultaneous exposure (FIG. 2) to CYC682 with oxaliplatin, doxorubicin, docetaxel and gemcitabine was studied in two sensitive colon cancer cell lines—COLO205 and HCT116 using combination indices that represent an affected fraction for the concentration of drugs corresponding to IC50 as previously described by Chou and Talalay.

COLO205 cancer cell line = experiment: as above
Procedure: as §1, §2, §3, §4, §5, §6, §7

Row | Compound | Combination Index at ED50, Concomitant [1] | Combination Index at ED75, Concomitant [1] | Combination Index at ED90, Concomitant [1] | Interaction with CYC682 (isobologram) (HCT116 cancer cell line; HCT116, named agent given prior to CYC682) | Interaction with CYC682 (isobologram) (COLO205 cancer cell line; COLO205, named agent given prior to CYC682) | Interaction with CYC682 (isobologram) (HCT116 cancer cell line; HCT116 (FIG. 5), sequential exposure, at high concentrations) | Interaction with CYC682 (isobologram) (COLO205 cancer cell line; COLO205 (FIG. 5), sequential exposure, at high concentrations)
1 | CC(=O)O[C@@]12CO[C@@H]1C[C@H](O)[C@@]1(C)C(=O)[C@H](O)C3=C(C)[C@@H](OC(=O)[C@H](O)[C@@H](NC(=O)OC(C)(C)C)c4ccccc4)C[C@@](O)([C@@H](OC(=O)c4ccccc4)[C@H]21)C3(C)C [Docetaxel] | 0.9 | 0.97 | 1.1 | synergistic effect | synergistic effect | – | –
2 | COc1cccc2c1C(=O)c1c(O)c3c(c(O)c1C2=O)C[C@@](O)(C(=O)CO)C[C@@H]3O[C@H]1C[C@H](N)[C@H](O)[C@H](C)O1 [Doxorubicin] | – | – | – | – | – | synergistic | synergistic
